Here are results for 29 molecules from patent publication US9006450B2 (Boehringer Ingelheim International GmbH, priority 2010, dated 2015).

T1 sequence (O00763 129-2458 limits assumed): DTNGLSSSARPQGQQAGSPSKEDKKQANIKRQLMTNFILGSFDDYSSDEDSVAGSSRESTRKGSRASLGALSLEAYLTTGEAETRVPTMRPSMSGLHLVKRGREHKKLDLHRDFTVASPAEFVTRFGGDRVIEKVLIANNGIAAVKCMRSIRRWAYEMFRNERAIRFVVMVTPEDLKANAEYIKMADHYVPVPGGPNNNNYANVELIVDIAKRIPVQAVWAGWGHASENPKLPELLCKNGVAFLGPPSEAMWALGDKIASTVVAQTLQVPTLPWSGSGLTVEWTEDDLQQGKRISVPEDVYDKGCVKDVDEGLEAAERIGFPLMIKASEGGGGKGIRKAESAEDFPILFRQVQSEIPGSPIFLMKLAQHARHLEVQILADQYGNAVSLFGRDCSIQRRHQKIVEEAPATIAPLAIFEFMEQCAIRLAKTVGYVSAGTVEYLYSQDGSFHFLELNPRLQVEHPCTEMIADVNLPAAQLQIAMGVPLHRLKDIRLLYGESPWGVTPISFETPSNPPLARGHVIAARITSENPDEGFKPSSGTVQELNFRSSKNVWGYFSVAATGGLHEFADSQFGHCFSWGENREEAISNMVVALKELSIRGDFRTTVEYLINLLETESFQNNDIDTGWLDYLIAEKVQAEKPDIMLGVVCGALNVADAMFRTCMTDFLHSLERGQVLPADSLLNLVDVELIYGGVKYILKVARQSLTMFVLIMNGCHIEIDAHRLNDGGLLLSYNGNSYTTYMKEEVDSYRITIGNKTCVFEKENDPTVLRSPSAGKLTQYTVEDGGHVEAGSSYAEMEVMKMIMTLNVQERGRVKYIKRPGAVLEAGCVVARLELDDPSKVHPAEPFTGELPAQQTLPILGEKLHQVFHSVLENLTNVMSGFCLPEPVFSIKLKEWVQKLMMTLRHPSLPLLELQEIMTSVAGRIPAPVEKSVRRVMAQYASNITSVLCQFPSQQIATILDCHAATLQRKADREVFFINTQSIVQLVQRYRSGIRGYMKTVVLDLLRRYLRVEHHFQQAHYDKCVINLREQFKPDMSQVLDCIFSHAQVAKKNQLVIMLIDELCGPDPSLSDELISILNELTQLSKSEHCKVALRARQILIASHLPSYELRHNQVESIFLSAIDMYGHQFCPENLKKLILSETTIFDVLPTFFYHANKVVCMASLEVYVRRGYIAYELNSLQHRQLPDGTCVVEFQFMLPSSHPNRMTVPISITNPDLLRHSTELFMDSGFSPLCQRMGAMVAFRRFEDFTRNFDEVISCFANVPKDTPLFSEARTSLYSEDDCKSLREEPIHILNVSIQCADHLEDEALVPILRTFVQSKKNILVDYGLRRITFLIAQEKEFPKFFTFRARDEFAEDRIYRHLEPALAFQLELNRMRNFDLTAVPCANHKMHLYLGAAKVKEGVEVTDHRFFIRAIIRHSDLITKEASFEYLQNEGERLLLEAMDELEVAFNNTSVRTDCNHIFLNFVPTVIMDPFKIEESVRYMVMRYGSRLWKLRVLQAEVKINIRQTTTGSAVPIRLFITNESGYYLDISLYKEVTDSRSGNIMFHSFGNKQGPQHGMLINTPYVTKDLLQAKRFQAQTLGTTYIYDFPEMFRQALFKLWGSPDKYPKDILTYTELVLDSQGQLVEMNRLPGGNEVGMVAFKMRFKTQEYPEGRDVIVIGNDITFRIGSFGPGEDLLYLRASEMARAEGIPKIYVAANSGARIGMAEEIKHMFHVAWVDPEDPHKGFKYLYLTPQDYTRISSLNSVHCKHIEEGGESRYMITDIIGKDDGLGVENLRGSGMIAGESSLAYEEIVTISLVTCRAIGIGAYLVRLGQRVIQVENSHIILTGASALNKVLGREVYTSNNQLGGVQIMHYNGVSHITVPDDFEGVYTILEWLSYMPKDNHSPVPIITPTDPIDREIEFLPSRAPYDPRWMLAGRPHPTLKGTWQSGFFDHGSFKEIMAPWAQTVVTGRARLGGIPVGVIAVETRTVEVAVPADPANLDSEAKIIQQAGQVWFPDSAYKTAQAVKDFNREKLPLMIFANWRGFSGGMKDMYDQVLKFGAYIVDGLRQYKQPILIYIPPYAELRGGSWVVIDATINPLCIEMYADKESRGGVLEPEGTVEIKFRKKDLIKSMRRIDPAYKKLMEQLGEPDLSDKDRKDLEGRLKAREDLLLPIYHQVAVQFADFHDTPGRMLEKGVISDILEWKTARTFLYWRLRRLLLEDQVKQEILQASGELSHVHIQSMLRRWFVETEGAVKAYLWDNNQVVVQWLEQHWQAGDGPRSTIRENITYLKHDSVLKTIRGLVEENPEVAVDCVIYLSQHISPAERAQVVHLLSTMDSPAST

The experiment concerns the target T1, human ACC2 (Homo sapiens, UniProt O00763).
T1 construct: made in house; host or cells: insect cells (baculoviral expression system)
In words: ACC2 assay, spectrophotometric 384 well assay (NADH-linked, coupled lactate dehydrogenase/pyruvate kinase). Particulars: ACC2 assay, hACC2 construct lacking 128 N-terminal amino acids, 25° C., 340 nm; read-out: IC50. In kind it is biochemical. In a few lines: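 Human ACC2 lacking N-terminal 128 aa, baculovirus/insect-cell expressed, anion-exchange purified; 100 mM Tris pH 7.5, 10 mM citrate, 25 mM KHCO3, 1% DMSO. Started with 200 μM NADH and acetyl-CoA plus 500 μM ATP; PK/LDH-coupled A340 decrease read 15 min at 25° C. IC50 by nonlinear fit of low-control-subtracted slopes.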
Take `CC(=O)N[C@@H](C)c1ccc(C2CCN(c3cccc(OCC4CC4)c3)CC2)cc1` [Example 8.3]: the 50% inhibitory concentration (IC50) – broadly, the concentration that gives 50% inhibition – came out at 200 nM.

For the molecule `CC(=O)N[C@@H](C)c1ccc(C2CCN(c3cccc(OCC(C)C)c3)CC2)cc1` [Example 8.4], the IC50 is 400 nM.

In the case of `CC(=O)N[C@@H](C)c1ccc(C2CCN(c3cccc(OC4CCCC4)c3)CC2)cc1` [Example 8.5], the half-inhibitory concentration (IC50) is 220 nM.

Turning to `CCCCOc1cccc(N2CCC(c3ccc([C@H](C)NC(C)=O)cc3)CC2)c1` [Example 8.6], the IC50 amounted to 330 nM.

Take `CC(=O)N[C@@H](C)c1ccc(C2CCN(c3cccc(OC(C)C)c3)CC2)cc1` [Example 8.7]: the IC50 was 160 nM.

As for `CCCOc1cnc(N2CCC(c3ccc([C@H](C)NC(C)=O)cc3)CC2)cn1` [Example 8.8], the half-maximal inhibitory concentration (IC50) turned out to be 290 nM.

As for `CC(=O)N[C@@H](C)c1ccc(C2CCN(c3ccc(OC4COC4)cc3)CC2)cc1` [Example 8.9], the concentration for half-maximal inhibition (IC50) was determined as 600 nM.

On to `CCOC(=O)C1(Oc2ccc(N3CCC(c4ccc([C@H](C)NC(C)=O)cc4)CC3)cc2)CCC1` [Example 8.10], for which the IC50 worked out at 100 nM.

As for `CC(=O)N[C@@H](C)c1ccc(C2CCN(c3ccc(OC4CCC4)c(C)c3)CC2)cc1` [Example 8.11], the IC50 was found to be 1800 nM.

Turning to `CC(=O)N[C@@H](C)c1ccc(C2CCN(c3ccc(OC4CCC4)c(C#N)c3)CC2)cc1` [Example 8.12], the IC50 was 2300 nM.

On to `CC(=O)N[C@@H](C)c1ccc(C2CCN(c3ccc(OC4CCC4)c(F)c3)CC2)cc1` [Example 8.13], for which the concentration for half-maximal inhibition (IC50) came to 110 nM.

For `CC(=O)N[C@@H](C)c1ccc(C2CCN(c3ccc(OC4CCC4)c(Cl)c3)CC2)cc1` [Example 8.14], the IC50 amounted to 130 nM.

With `CCOc1ccc(N2CCC(c3ccc([C@H](C)NC(C)=O)cc3)CC2)cc1C` [Example 8.15], the IC50 worked out at 830 nM.

As for `CCOc1ccc(N2CCC(c3ccc([C@H](C)NC(C)=O)cc3)CC2)cc1C#N` [Example 8.16], the 50% inhibitory concentration (IC50) worked out at 5600 nM.

For `CCOc1ccc(N2CCC(c3ccc([C@H](C)NC(C)=O)cc3)CC2)cc1F` [Example 8.17], the IC50 is 290 nM.

As to `CCOc1ccc(N2CCC(c3ccc([C@H](C)NC(C)=O)cc3)CC2)cc1OC` [Example 8.18], the IC50 came out at 2700 nM.

As to `COCCOc1ccc(N2CCC(c3ccc([C@H](C)NC(C)=O)cc3)CC2)cc1C` [Example 8.19], the IC50 stood at 6000 nM.

On to `COCCOc1ccc(N2CCC(c3ccc([C@H](C)NC(C)=O)cc3)CC2)cc1C#N` [Example 8.20], for which the IC50 turned out to be 12000 nM.

With `COCCOc1ccc(N2CCC(c3ccc([C@H](C)NC(C)=O)cc3)CC2)cc1F` [Example 8.21], the IC50 was found to be 1500 nM.

`COCCOc1ccc(N2CCC(c3ccc([C@H](C)NC(C)=O)cc3)CC2)cc1OC` [Example 8.22]: the IC50 turned out to be 14600 nM.

Turning to `CC(=O)N[C@@H](C)c1ccc(C2CCN(c3ccc(OC(C)C)c(C)c3)CC2)cc1` [Example 8.23], the 50% inhibitory concentration (IC50) is 570 nM.

`CC(=O)N[C@@H](C)c1ccc(C2CCN(c3ccc(OC(C)C)c(C#N)c3)CC2)cc1` [Example 8.24]: the IC50 stood at 12400 nM.

For the molecule `CC(=O)N[C@@H](C)c1ccc(C2CCN(c3ccc(OC(C)C)c(Cl)c3)CC2)cc1` [Example 8.25], the IC50 was 710 nM.

`CC(=O)N[C@@H](C)c1ccc(C2CCN(c3ccc(OCC(C)C)c(C)c3)CC2)cc1` [Example 8.26]: the half-maximal inhibitory concentration (IC50) was determined as 840 nM.

As for `CC(=O)N[C@@H](C)c1ccc(C2CCN(c3ccc(OCC(C)C)c(C#N)c3)CC2)cc1` [Example 8.27], the half-inhibitory concentration (IC50) is 2600 nM.

Consider `CC(=O)N[C@@H](C)c1ccc(C2CCN(c3ccc(OCC(C)C)c(F)c3)CC2)cc1` [Example 8.28], for which the IC50 amounted to 150 nM.

In the case of `COc1cc(N2CCC(c3ccc([C@H](C)NC(C)=O)cc3)CC2)ccc1OCC(C)C` [Example 8.29], the IC50 is 890 nM.

Regarding `CC(=O)N[C@@H](C)c1ccc(C2CCN(c3ccc(OCC(C)C)c(Cl)c3)CC2)cc1` [Example 8.30], the IC50 was 160 nM.

With `CCCOc1ccc(N2CCC(c3ccc([C@H](C)NC(C)=O)cc3)CC2)cc1C` [Example 8.31], the IC50 was found to be 1200 nM.
